This passage reports IC50 results from publication PMC8976029, “Gut microbiota production of trimethyl-5-aminovaleric acid reduces fatty acid oxidation and accelerates cardiac hypertrophy” (Nature Communications, 2022).

SMILES strings stand for the structures.

The assay concerns the target T1, OCTN2 (hOCTN2) (Homo sapiens, UniProt O76082).
T1 construct: gene SLC22A5; human OCTN2 stably overexpressed in MDCK cells; no tag stated
T1 sequence (O76082 1-557): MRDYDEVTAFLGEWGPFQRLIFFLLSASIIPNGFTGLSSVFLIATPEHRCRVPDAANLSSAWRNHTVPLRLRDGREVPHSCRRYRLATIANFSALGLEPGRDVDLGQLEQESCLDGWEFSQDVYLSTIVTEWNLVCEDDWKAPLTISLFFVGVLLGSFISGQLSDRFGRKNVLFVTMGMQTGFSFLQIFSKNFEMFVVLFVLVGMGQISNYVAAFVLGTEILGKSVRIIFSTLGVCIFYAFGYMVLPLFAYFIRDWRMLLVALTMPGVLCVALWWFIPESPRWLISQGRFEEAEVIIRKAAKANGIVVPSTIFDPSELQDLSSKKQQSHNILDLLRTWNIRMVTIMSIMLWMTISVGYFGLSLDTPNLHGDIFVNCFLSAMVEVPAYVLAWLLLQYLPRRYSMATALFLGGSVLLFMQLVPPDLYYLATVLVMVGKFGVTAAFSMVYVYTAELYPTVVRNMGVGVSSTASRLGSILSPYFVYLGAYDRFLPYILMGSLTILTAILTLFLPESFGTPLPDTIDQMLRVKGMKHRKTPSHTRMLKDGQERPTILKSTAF
In words: d9-carnitine uptake inhibition, LC-MS/MS. Format: cell-based. The text has this:
d9-carnitine uptake inhibition, LC-MS/MS on OCTN2 (hOCTN2) | TMAVA reduced the uptake of d9-carnitine in a concentration-dependent manner with an IC50 of […]

In turn, `C[N+](C)(C)CCCCC(=O)O` [TMAVA, N,N,N-trimethyl-5-aminovaleric acid] came in with an IC50 of 4.15 µM.

As a reminder, the IC50 is the concentration that inhibits the measured activity by half. Higher therefore signals weaker potency.
